Data: US11274082B2, “Tead inhibitors and uses thereof” (Ikena Oncology, Inc., priority 2019, dated 2022)
Read-outs that look alike come from different tables or passages of the source.

What was measured:
TEAD = TEAD reporter assay (Hippo Pathway TEAD Reporter - MCF7 cell line, luciferase); format: cell-based; settings: Homo sapiens
Excerpt: TEAD inhibition can be assayed using Hippo Pathway TEAD Reporter—MCF7 Cell Line (BPS Bioscience, Catalog #: 60618).
The TEAD Reporter—MCF7 cell line contains the firefly luciferase gene under the control of TEAD responsive elements stably integrated into the human breast cancer cell line, MCF7. Inside the cells, basal unphosphorylated YAP/TAZ remains in the nucleus and induces the constitutive expression of luciferase reporter. The cell line is validated for the inhibition of the expression of luciferase reporter by the activators of the Hippo pathway.
• 1) Harvest TEAD Reporter—MCF7 cells from culture in growth medium and seed cells at a density of 35,000 cells per well into white clear-bottom 96-well microplate in 45 μl of assay medium. • 2) Incubate cells at 37° C. in a CO2 incubator for overnight. • 3) Dilute the activators (H2O2 or okadaic acid) stock in assay medium. Add 5 μl of diluted activators to the wells. The final concentration of DMSO in assay medium is 0.1%. • 4) Add 5 μl of assay medium with same concentration of DMSO without activator to control wells. • 5) Add 50 μl of assay medium with DMSO to cell-free control wells (for determining background luminescence). • 6) Set up each treatment in at least triplicate. • 7) Incubate cells at 37° C. in a CO2 incubator for 5-6 hours. • 8) Perform luciferase assay using the ONE-Step™ Luciferase Assay System following the protocol provided: Add 100 μl of ONE-Step™ Luciferase reagent per well and rock at room temperature for ˜15 minutes. Measure luminescence using a luminometer. • 9) Data Analysis: Obtain the background-subtracted luminescence by subtracting the average background luminescence (cell-free control wells) from the luminescence reading of all wells.
(§1) Certain compounds were tested in TEAD reporter assay, and in H226 and H28. A: EC50<0.1 uM; B: 0.1 uM≤EC50≤0.5 uM; C: EC50>0.5 uM.

H28 = assay: Anti-proliferation assay in H28 cells; format: cell-based; settings: Homo sapiens, NCI-H28
Protocol: as §1
(§2) Individual cell lines were grown in medium according to supplier instructions and seeded into 96-well plates at a density that ensured logarithmic growth over 72 hours. TEAD inhibitor compounds were administered to cells at a top concentration of 10 μm and subsequently a 10 point 3-fold serial dilution was conducted. After 72 hours, proliferation was quantified using Cell TITERGLO™ (Promega, Inc.) and compared to vehicle control. IC50 and EC50 values were generated using XLFit curve fitting software.

H226 = assay: Anti-proliferation assay in H226 cells; format: cell-based; settings: Homo sapiens
Protocol: as §1, §2

[1] = Mouse pharmacokinetics study; format: in vivo; settings: BALB/c mice, 10 mg/kg by oral gavage in 5% DMS/95% PEG400, plasma
Protocol: Formulated compounds were administered intravenously or orally via gavage to BALB/c mice. Typically, at 0.167, 0.5, 1, 2, 4, 6, 12, and 24 hours post-dose, blood was collected and processed to plasma by centrifugation and stored at −80° C. until analysis. Internal standard was added to each sample prior to protein precipitation with acetonitrile or TCA. The precipitates were filtered through a filter plate and the samples were analyzed by LC/MS/MS. A standard curve was prepared in plasma from typically from 1.0 ng/mL to 3000 ng/mL and processed in the same manner as the samples. Sample analysis was typically performed on a suitable LC/MS/MS system fitted with an analytical UPLC column and compounds eluted from the analytical column with a gradient from 30-95% 0.1% formic acid (v/v) in ACN: 0.1% formic acid (v/v) in water. Mass spectrometric detection of test compound and the internal standard was performed by MRM in positive mode. The pharmacokinetics of each compound were analyzed by Phoenix WinNonlin software (Pharsight, St. Louis, Mo.) via noncompartmental analysis.

[2] = TEAD Reporter - MCF7 cells, read-out: TEAD Reporter Assay EC50
[3] = NCI-H226, H226 cells, read-out: H226 EC50

Row | Structure (SMILES) | EC50 (TEAD; [2]) | EC50 (H28) | EC50 (H226; [3]) | AUC(0-t) [1] | Cmax [1] | EC50 (TEAD; MCF7, read-out: TEAD Reporter Assay EC50 (uM)) | EC50 (H226; NCI-H226, read-out: H226 EC50 (uM))
1 | CNS(=O)(=O)c1ccc(NCc2ccccc2)c(-c2nnn(C)n2)c1 [I-16, 4-(benzylamino)-N-methyl-3-(2-methyltetrazol-5-yl)benzenesulfonamide] | 0.1 to 0.5 µM | > 500 nM | > 0.5 µM | – | – | – | –
2 | Cn1nnc(-c2cc(B(O)O)ccc2Nc2cccc(C(F)(F)F)c2)n1 [I-17, [3-(2-methyltetrazol-5-yl)-4-[3-(trifluoromethyl)anilino]phenyl]boronic acid] | > 0.5 µM | > 500 nM | > 0.5 µM | – | – | – | –
3 | CNS(=O)(=O)c1ccc(NCc2ccccc2)c(-c2cn(C)cn2)c1 [I-27, 4-(Benzylamino)-N-methyl-3-(1-methylimidazol-4-yl)benzenesulfonamide] | < 0.1 µM | > 500 nM | < 0.1 µM | 2250 ng·h/mL | 1040 ng/mL | – | –
4 | CNS(=O)(=O)c1ccc(N[C@H](C)c2ccccc2)c(-c2cn(C)cn2)c1 [I-30, N-Methyl-3-(1-methylimidazol-4-yl)-4-[[(1R)-1-phenylethyl]amino]benzenesulfonamide] | < 0.1 µM | – | < 0.1 µM | 887 ng·h/mL | 882 ng/mL | – | –
5 | CNS(=O)(=O)c1ccc(NCc2cccc(C(F)(F)F)c2)c(-c2cn(C)cn2)c1 [I-31, N-Methyl-3-(1-methyl-1H-imidazol-4-yl)-4-((3-(trifluoromethyl)benzyl)amino)benzenesulfonamide] | < 0.1 µM | – | < 0.1 µM | 2520 ng·h/mL | 774 ng/mL | – | –
6 | CNS(=O)(=O)c1ccc(NCc2ccc(C(F)(F)F)cc2)c(-c2cn(C)cn2)c1 [I-32, N-Methyl-3-(1-methyl-1H-imidazol-4-yl)-4-((4-(trifluoromethyl)benzyl)amino)benzenesulfonamide] | < 0.1 µM | – | < 0.1 µM | 4580 ng·h/mL | 1090 ng/mL | – | –
7 | CNS(=O)(=O)c1ccc(Nc2cc(C(F)(F)F)ccn2)c(-c2cn(C)cn2)c1 [I-33, N-Methyl-3-(1-methylimidazol-4-yl)-4-[[4-(trifluoromethyl)-2-pyridyl]amino]benzenesulfonamide] | < 0.1 µM | – | < 0.1 µM | 731 ng·h/mL | 420 ng/mL | – | –
8 | CNS(=O)(=O)c1cnc(Nc2cccc(C(F)(F)F)c2)c(-c2cn(C)cn2)c1 [I-36, N-Methyl-5-(1-methylimidazol-4-yl)-6-[3-(trifluoromethyl)anilino]pyridine-3-sulfonamide] | – | – | – | 595 ng·h/mL | 213 ng/mL | < 0.1 µM | < 0.1 µM
9 | CCNS(=O)(=O)c1ccc(Nc2cc(C(F)(F)F)ccn2)c(-c2cn(C)cn2)c1 [I-37, N-Ethyl-3-(1-methylimidazol-4-yl)-4-[[4-(trifluoromethyl)-2-pyridyl]amino]benzenesulfonamide] | < 0.1 µM | – | < 0.1 µM | 521 ng·h/mL | 351 ng/mL | – | –
10 | CNS(=O)(=O)c1ccc(Nc2ccc(C(F)(F)F)cn2)c(-c2cn(C)cn2)c1 [I-38, N-Methyl-3-(1-methylimidazol-4-yl)-4-[[5-(trifluoromethyl)-2-pyridyl]amino]benzenesulfonamide] | < 0.1 µM | – | < 0.1 µM | 25900 ng·h/mL | 1620 ng/mL | – | –
11 | CNS(=O)(=O)c1ccc(Nc2cccc(C(F)(F)F)c2)c(-c2cn(C)cn2)c1 [P-12] | – | – | – | 2330 ng·h/mL | 558 ng/mL | – | –
12 | CNS(=O)(=O)c1ccc(Nc2cccc(C(F)(F)F)c2)c(-c2nnn(C)n2)c1 [P-14] | – | – | – | 622 ng·h/mL | 210 ng/mL | – | –
